According to ChEMBL document CHEMBL3774360, “Potent multitarget FAAH-COX inhibitors: Design and structure-activity relationship studies” (Eur J Med Chem, 2016):
The source made the active and inactive calls. No cut-off for these calls is given here.

Key:
Homo sapiens [1] = organism: Homo sapiens; assay: Binding affinity to human sigma receptor at 10 uM by radioligand binding assay
[2] = molecular target: Polyunsaturated fatty acid lipoxygenase ALOX15B (Homo sapiens) (UniProt O15296); assay: Binding affinity to recombinant human 15-Lipoxygenase-2 at 10 uM
[3] = molecular target: Vasopressin V2 receptor (Homo sapiens) (UniProt P30518); assay: Binding affinity to human V2 receptor at 10 uM by radioligand binding assay
[4] = molecular target: cGMP-inhibited 3',5'-cyclic phosphodiesterase 3A (Homo sapiens) (UniProt Q14432); assay: Binding affinity to human PDE3A at 10 uM
[5] = molecular target: D(3) dopamine receptor (Homo sapiens) (UniProt P35462); assay: Binding affinity to human dopamine D3 receptor at 10 uM by radioligand binding assay
[6] = molecular target: Endothelin receptor type B (Homo sapiens) (UniProt P24530); assay: Binding affinity to human ETB receptor at 10 uM by radioligand binding assay
Sequence of Endothelin receptor type B (Homo sapiens) (P24530 whole entry): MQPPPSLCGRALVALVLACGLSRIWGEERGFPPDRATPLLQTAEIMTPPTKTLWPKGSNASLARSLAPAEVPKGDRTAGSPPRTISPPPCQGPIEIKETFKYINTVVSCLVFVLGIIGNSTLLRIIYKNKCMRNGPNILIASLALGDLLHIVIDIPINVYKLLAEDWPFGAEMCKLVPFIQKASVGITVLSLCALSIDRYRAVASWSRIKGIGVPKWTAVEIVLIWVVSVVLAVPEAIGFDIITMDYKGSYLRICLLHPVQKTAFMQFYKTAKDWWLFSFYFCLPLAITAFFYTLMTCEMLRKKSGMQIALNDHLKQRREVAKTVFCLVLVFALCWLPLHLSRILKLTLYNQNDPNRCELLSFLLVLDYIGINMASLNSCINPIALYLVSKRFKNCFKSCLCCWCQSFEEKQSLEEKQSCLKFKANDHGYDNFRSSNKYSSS

[7] = molecular target: Vasopressin V1a receptor (Homo sapiens) (UniProt P37288); assay: Binding affinity to human V1a receptor at 10 uM by radioligand binding assay
[8] = molecular target: Adenylate cyclase (Homo sapiens) (UniProt Q8NFM4+O60503+Q08828+P40145+O60266+O95622+O43306+Q08462+P51828); assay: Activation of adenylyl cyclase (unknown origin) at 10 uM; type: protein assay
[9] = molecular target: Secretory phospholipase A2 receptor (Homo sapiens) (UniProt Q13018); assay: Binding affinity to human sPLA2 at 10 uM
[10] = molecular target: Calcitonin gene-related peptide 1 (Homo sapiens) (UniProt P06881); assay: Binding affinity to CGRP1 (unknown origin) at 10 uM
Sequence of Calcitonin gene-related peptide 1 (Homo sapiens) (P06881 83-119 limits assumed): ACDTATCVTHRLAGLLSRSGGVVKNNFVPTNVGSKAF

[11] = molecular target: Adrenergic receptor alpha-1 (Homo sapiens) (UniProt P35348+P25100+P35368); assay: Binding affinity to human alpha-1 adrenergic receptor (unknown origin) at 10 uM by radioligand binding assay
[12] = molecular target: Histamine H3 receptor (Homo sapiens) (UniProt Q9Y5N1); assay: Binding affinity to human histamine H3 receptor at 10 uM by radioligand binding assay
[13] = molecular target: Tyrosine-protein phosphatase non-receptor type 1 (Homo sapiens) (UniProt P18031); assay: Binding affinity to PTPN1 (unknown origin) at 10 uM
Homo sapiens [14] = organism: Homo sapiens; assay: Binding affinity to AMPA receptor (unknown origin) at 10 uM by radioligand binding assay
[15] = molecular target: NAD-dependent protein deacetylase sirtuin-1 (Homo sapiens) (UniProt Q96EB6); assay: Inhibition of human sirtuin 1 at 10 uM; set-up: scale not given: the % may be the effect or the level left
[16] = molecular target: Glucocorticoid receptor (Homo sapiens) (UniProt P04150); assay: Binding affinity to human glucocorticoid receptor at 10 uM by radioligand binding assay
[17] = molecular target: Catechol O-methyltransferase (Homo sapiens) (UniProt P21964); assay: Binding affinity to COMT (unknown origin) at 10 uM
Sequence of Catechol O-methyltransferase (Homo sapiens) (P21964 whole entry): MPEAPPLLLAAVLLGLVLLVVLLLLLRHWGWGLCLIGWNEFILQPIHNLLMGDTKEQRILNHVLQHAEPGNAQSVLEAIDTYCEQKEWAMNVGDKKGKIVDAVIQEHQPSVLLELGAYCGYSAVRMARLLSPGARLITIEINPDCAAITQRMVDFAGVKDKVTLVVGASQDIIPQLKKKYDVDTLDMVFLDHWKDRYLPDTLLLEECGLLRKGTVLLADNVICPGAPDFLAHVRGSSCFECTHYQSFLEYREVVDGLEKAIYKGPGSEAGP

[18] = molecular target: 4-aminobutyrate aminotransferase, mitochondrial (Homo sapiens) (UniProt P80404); assay: Binding affinity to GABA transaminase (unknown origin) at 10 uM
[19] = molecular target: Substance-P receptor (Homo sapiens) (UniProt P25103); assay: Binding affinity to human NK1 receptor at 10 uM by radioligand binding assay
Sequence of Substance-P receptor (Homo sapiens) (P25103 whole entry): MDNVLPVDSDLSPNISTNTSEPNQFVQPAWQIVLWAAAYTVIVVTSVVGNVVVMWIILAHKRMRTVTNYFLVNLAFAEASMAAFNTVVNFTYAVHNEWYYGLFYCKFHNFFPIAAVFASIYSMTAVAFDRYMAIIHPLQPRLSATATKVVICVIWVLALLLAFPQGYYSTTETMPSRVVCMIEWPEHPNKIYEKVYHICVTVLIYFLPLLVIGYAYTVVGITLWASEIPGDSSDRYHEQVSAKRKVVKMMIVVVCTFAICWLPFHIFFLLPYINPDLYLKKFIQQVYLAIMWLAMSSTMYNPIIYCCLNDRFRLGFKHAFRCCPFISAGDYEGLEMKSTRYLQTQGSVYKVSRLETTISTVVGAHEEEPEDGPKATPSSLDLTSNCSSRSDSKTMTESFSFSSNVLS

[20] = molecular target: Beta-2 adrenergic receptor (Homo sapiens) (UniProt P07550); assay: Binding affinity to beta-2 adrenergic receptor (unknown origin) at 10 uM by radioligand binding assay
[21] = molecular target: Neuromedin-K receptor (Homo sapiens) (UniProt P29371); assay: Binding affinity to human neurokinin 3 receptor at 10 uM by radioligand binding assay
[22] = molecular target: Opioid receptors; mu/kappa/delta (Homo sapiens) (UniProt P41145+P41143+P35372); assay: Binding affinity to opioid receptor (unknown origin) at 10 uM by radioligand binding assay
Mus musculus [23] = assay: In-vivo inhibition of COX in mouse plasma assessed as decrease in 6-keto-PGF1-alpha level at 1 mg/kg, iv after 1 hr by LC-MS/MS analysis; type: functional, organism-based
[24] = molecular target: Progesterone receptor (Homo sapiens) (UniProt P06401); assay: Binding affinity to human progesterone receptor at 10 uM by radioligand binding assay
Sequence of Progesterone receptor (Homo sapiens) (P06401 whole entry): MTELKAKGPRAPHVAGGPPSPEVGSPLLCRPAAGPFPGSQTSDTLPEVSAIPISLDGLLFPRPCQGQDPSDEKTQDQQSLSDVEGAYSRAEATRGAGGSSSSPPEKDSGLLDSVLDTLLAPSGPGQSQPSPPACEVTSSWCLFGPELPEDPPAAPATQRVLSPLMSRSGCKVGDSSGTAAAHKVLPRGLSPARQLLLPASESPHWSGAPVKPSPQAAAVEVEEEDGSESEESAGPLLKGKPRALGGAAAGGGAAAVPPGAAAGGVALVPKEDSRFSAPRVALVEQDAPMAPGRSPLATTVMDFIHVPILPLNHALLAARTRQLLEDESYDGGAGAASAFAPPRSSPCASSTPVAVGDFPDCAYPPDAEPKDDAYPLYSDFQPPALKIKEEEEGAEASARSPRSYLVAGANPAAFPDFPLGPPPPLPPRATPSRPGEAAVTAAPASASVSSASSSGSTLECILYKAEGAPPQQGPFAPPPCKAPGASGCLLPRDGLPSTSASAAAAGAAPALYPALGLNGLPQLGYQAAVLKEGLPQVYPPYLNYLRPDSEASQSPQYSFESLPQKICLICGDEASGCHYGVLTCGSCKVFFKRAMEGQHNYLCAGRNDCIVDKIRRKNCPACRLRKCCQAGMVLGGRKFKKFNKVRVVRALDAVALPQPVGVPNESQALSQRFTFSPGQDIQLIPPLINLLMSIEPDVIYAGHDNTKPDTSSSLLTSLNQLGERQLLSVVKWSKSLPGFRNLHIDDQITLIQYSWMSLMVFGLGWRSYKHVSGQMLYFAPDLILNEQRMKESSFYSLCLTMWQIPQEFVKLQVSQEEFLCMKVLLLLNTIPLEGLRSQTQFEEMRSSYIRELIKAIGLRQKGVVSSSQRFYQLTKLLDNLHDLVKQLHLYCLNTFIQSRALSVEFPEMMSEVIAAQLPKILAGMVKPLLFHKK

[25] = molecular target: Thromboxane A2 receptor (Homo sapiens) (UniProt P21731); assay: Antagonist activity against human TP receptor at 10 uM; set-up: scale not given: the % may be the effect or the level left
[26] = molecular target: Transient receptor potential cation channel subfamily V member 1 (Homo sapiens) (UniProt Q8NER1); assay: Antagonist activity against human TRPV1 receptor at 10 uM; set-up: scale not given: the % may be the effect or the level left
Sequence of Transient receptor potential cation channel subfamily V member 1 (Homo sapiens) (Q8NER1 whole entry): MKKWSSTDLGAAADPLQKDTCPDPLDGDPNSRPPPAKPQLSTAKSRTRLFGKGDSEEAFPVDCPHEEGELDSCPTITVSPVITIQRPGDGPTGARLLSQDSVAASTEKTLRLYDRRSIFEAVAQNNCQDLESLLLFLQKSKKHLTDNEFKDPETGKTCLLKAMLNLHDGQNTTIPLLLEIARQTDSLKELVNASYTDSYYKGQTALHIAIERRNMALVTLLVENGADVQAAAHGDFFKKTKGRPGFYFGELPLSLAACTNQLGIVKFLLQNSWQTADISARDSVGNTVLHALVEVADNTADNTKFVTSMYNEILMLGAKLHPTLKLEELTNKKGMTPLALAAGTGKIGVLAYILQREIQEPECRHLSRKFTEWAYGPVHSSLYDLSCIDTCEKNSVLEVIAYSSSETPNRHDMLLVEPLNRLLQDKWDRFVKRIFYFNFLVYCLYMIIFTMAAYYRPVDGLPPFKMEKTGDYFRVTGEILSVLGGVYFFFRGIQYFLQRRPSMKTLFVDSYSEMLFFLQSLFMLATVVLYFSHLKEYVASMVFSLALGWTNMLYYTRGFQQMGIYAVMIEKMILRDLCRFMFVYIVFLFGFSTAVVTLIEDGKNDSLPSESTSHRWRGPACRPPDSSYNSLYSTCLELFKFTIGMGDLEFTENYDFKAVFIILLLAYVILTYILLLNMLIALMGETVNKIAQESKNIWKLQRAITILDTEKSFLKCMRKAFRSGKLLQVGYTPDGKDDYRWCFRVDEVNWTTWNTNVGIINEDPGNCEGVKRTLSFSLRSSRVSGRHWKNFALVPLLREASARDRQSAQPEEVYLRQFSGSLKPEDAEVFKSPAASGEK

[27] = molecular target: Prostaglandin G/H synthase 1 (Homo sapiens) (UniProt P23219); assay: Binding affinity to human COX1 at 10 uM
[28] = molecular target: Estrogen receptor (Homo sapiens) (UniProt P03372); assay: Binding affinity to human estrogen receptor at 10 uM by radioligand binding assay
Sequence of Estrogen receptor (Homo sapiens) (P03372 whole entry): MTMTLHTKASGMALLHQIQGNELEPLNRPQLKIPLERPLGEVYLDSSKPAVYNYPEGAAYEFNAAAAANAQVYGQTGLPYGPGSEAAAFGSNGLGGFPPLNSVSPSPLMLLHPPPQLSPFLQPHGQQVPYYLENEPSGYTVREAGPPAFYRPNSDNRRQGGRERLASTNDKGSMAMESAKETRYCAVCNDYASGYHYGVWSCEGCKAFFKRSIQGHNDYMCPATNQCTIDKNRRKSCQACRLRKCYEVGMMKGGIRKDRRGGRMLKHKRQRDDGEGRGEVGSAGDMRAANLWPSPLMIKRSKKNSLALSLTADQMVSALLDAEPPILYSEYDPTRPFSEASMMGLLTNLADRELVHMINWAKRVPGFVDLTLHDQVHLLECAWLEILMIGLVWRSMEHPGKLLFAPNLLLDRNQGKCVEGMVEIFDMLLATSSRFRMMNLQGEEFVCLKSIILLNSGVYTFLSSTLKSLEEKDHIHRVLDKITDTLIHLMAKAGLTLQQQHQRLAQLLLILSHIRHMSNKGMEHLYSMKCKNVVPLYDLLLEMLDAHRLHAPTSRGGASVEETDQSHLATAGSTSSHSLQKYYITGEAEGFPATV

[29] = molecular target: 3',5'-cyclic-AMP phosphodiesterase 4D (Homo sapiens) (UniProt Q08499); assay: Binding affinity to human PDE4D2 at 10 uM
[30] = molecular target: B2 bradykinin receptor (Homo sapiens) (UniProt P30411); assay: Binding affinity to human bradykinin 2 receptor at 10 uM by radioligand binding assay
[31] = molecular target: Type-1 angiotensin II receptor (Homo sapiens) (UniProt P30556); assay: Binding affinity to human angiotensin receptor 1 at 10 uM by radioligand binding assay
[32] = tested on: Voltage-gated potassium channel; assay: Binding affinity to voltage-gated potassium channel (unknown origin) at 10 uM by radioligand binding assay; type: protein assay; details: human
[33] = molecular target: Histone deacetylase 3 (Homo sapiens) (UniProt O15379); assay: Binding affinity to human HDAC3 at 10 uM
Sequence of Histone deacetylase 3 (Homo sapiens) (O15379 whole entry): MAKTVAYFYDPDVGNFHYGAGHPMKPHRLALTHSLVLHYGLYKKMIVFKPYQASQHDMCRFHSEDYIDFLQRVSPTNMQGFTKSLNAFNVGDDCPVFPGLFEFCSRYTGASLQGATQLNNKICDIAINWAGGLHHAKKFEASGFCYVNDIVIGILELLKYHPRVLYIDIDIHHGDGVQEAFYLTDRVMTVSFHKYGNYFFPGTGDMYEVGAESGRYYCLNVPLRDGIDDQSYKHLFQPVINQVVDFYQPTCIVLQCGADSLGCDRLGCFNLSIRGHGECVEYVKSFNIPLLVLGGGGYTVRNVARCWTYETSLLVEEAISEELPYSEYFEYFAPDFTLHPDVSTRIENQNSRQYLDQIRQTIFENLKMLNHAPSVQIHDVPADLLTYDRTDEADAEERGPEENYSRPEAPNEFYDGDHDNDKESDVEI

[34] = molecular target: Endothelin-1 receptor (Homo sapiens) (UniProt P25101); assay: Binding affinity to human ETA receptor at 10 uM by radioligand binding assay
[35] = molecular target: Histone deacetylase 11 (Homo sapiens) (UniProt Q96DB2); assay: Binding affinity to human HDAC11 at 10 uM
[36] = molecular target: Substance-K receptor (Homo sapiens) (UniProt P21452); assay: Binding affinity to human NK2 receptor at 10 uM by radioligand binding assay
[37] = molecular target: Histamine H1 receptor (Homo sapiens) (UniProt P35367); assay: Binding affinity to human histamine H1 receptor at 10 uM by radioligand binding assay
Sequence of Histamine H1 receptor (Homo sapiens) (P35367 whole entry): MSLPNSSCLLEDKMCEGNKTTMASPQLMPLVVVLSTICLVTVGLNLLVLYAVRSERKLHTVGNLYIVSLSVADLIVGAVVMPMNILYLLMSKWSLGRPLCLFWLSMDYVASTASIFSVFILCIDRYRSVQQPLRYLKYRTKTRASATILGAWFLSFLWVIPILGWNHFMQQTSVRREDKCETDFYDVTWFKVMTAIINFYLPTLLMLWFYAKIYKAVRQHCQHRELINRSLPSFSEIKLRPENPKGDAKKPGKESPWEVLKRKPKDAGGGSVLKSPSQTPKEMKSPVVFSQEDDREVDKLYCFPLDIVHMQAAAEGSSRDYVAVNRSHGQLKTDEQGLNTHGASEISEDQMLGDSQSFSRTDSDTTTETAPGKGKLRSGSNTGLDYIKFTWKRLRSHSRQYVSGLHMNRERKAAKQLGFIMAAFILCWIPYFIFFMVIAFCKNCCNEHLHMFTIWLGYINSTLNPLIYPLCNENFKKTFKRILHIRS

Homo sapiens [38] = organism: Homo sapiens; assay: Binding affinity to ATP-sensitive potassium channel (unknown origin) at 10 uM by radioligand binding assay
[39] = molecular target: Kinesin-like protein KIF11 (Homo sapiens) (UniProt P52732); assay: Binding affinity to human Eg5 at 10 uM
[40] = molecular target: Thyrotropin-releasing hormone receptor (Homo sapiens) (UniProt P34981); assay: Binding affinity to human TRH1 receptor at 10 uM by radioligand binding assay
[41] = molecular target: Proteinase-activated receptor 2 (Homo sapiens) (UniProt P55085); assay: Binding affinity to human PAR2 receptor at 10 uM by radioligand binding assay
Sequence of Proteinase-activated receptor 2 (Homo sapiens) (P55085 whole entry): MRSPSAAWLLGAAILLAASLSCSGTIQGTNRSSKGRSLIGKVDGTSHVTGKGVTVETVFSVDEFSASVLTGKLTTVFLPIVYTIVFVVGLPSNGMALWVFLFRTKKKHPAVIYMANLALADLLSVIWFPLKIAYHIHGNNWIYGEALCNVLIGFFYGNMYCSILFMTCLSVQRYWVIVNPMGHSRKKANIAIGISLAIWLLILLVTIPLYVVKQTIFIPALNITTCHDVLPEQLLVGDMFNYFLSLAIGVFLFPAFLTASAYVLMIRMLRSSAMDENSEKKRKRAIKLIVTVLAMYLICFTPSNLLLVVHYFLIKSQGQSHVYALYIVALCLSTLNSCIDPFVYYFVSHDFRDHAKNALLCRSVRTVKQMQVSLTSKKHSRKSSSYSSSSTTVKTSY

Mus musculus [42] = assay: In-vivo inhibition of FAAH in mouse plasma assessed as increase in OEA level at 1 mg/kg, iv after 1 hr by LC-MS/MS analysis; type: functional, organism-based

Compound CCCCCCNC(=O)Oc1cccc(-c2ccc([C@H](C)C(=O)O)cc2F)c1 has an Activity (Homo sapiens [1]) of -6.9%, an Activity [2] of -6.4% and an Activity [3] of 4.2%. The Activity [4] was 0.3%, the Activity [5] was 0.7% and the Activity [6] was -17.5%. It also gave an Activity [7] of 0.4%, an Activity [8] of 0.4% and an Activity [9] of 0.4%. It also gave an Activity [10] of -11.7%, an Activity [11] of -3.8% and an Activity [12] of -9.3%. It also gave an Activity [13] of -5.3%, an Activity (Homo sapiens [14]) of -4.6% and an Activity [15] of -1.5%. For the same compound, the Activity [16] was 2.3%, the Activity [17] was -4.1% and the Activity [18] was 7.6%. For the same compound, the Activity [19] was -6.3%, the Activity [20] was -7.5% and the Activity [21] was 2.8%. For the same compound, the Activity [22] was 15.5%, the inhibition (Mus musculus [23]) was “Active” and the Activity [24] was -9.5%. For the same compound, the Activity [25] was 2.9%, the Activity [26] was 17.9% and the Activity [27] was 99.2%. It also gave an Activity [28] of -10.5%, an Activity [29] of 0.5% and an Activity [30] of -4.3%. For the same compound, the Activity [31] was -3.4%, the Activity [32] was -9.9% and the Activity [33] was -4.3%. It also gave an Activity [34] of -6.2%, an Activity [35] of -52% and an Activity [36] of -1.6%. For the same compound, the Activity [37] was 1.8%, the Activity (Homo sapiens [38]) was 10.1% and the Activity [39] was 3.5%. For the same compound, the Activity [40] was -14.9%, the Activity [41] was 3.2% and the inhibition (Mus musculus [42]) was “Active”.
